How the values were obtained:
Type in all cases: cell-based
KMS-12-BM = experiment: proliferation assay (CellTiter-Glo), KMS-12-BM; conditions: KMS-12-BM cells, 72-hour drug exposure
Experimental: (§1) In accordance with the invention, the compounds were assessed in a cell-based assay that measures the capacity of the compounds to inhibit tumor cell proliferation following a 72-hour drug exposure. Cell viability is determined using CellTiter-Glo® Luminescent Cell Viability Assay (Promega). Cells were plated at 2000-5000 cells/well (depending on the cell lines) in 100 μL growth medium on 96-well microtiterplate. For each cell line assayed, cells were plated onto a separate plate for determination of Luminescence at t=0 hour and t=72 hour time points. Following overnight incubation at 37° C., Luminescence values for the t=0 samples were determined. Dose plates for the t=72 hour time points were treated with compounds diluted into growth medium. Cells were then incubated for 72 hours at 37° C. Luminescence values for the t=72 hour samples were determined. For data analysis, briefly, t=0 values were subtracted from those determined for the t=72 hour time points, for both the treated and untreated samples. Percent differences in […] between drug-treated and control values were used to determine the percent inhibition of growth.

Molp2 = experiment: proliferation assay (CellTiter-Glo), Molp2; conditions: MOLP-2; Molp2 cells, 72-hour drug exposure
Experimental: as §1

LP-1 = experiment: proliferation assay (CellTiter-Glo), LP-1; conditions: LP-1 cells, 72-hour drug exposure
Experimental: as §1

Molm13 = experiment: proliferation assay (CellTiter-Glo), Molm13; conditions: Homo sapiens, MOLM-13; Molm13 cells, 72-hour drug exposure
Experimental: as §1

RPMI 8226 = experiment: proliferation assay (CellTiter-Glo), RPMI 8226; conditions: Homo sapiens; RPMI 8226 cells, 72-hour drug exposure
Experimental: as §1

[1] = tested on: multiple myeloma cell lines; experiment: proliferation assays with multiple myeloma cell lines (summary); conditions: range over 9 multiple myeloma cell lines, 72-hour drug exposure; read-out: IC50s, proliferation of 9 multiple myeloma tested
Experimental: as §1

KMS-12-PE = experiment: proliferation assay (CellTiter-Glo), KMS-12-PE; conditions: Homo sapiens; KMS-12-PE cells, 72-hour drug exposure
Experimental: as §1

OPM2 = experiment: proliferation assay (CellTiter-Glo), OPM2; conditions: Homo sapiens, OPM-2; OPM2 cells, 72-hour drug exposure
Experimental: as §1

L363 = experiment: proliferation assay (CellTiter-Glo), L363; conditions: Homo sapiens, L-363; L363 cells, 72-hour drug exposure
Experimental: as §1

Molp8 = experiment: proliferation assay (CellTiter-Glo), Molp8; conditions: Homo sapiens, MOLP-8; Molp8 cells, 72-hour drug exposure
Experimental: as §1

SMILES: COc1c(OCCCN2CCOCC2)ccc2c1N=C(NC(=O)c1cnc(N)nc1)N1CCN=C21 [Compound A, 2-amino-N-[7-methoxy-8-(3-morpholin-4-ylpropoxy)-2,3-dihydroimidazo[1,2-c]quinazolin-5-yl]pyrimidine-5-carboxamide]
- IC50 (KMS-12-BM): 0.0037 µM
- IC50 (Molp2): 0.012 µM
- IC50 (LP-1): 0.0037 µM
- IC50 (Molm13): 0.069 µM
- IC50 (RPMI 8226): 0.048 µM
- IC50 [1]: 0.003 to 0.1 µM
- IC50 (KMS-12-PE): 0.067 µM
- IC50 (OPM2): 0.092 µM
- IC50 (L363): 0.0081 µM
- IC50 (Molp8): 0.023 µM

— US20110251191A1, “USE OF SUBSTITUTED 2, 3-DIHYDROIMIDAZO[1,2-C]QUINAZOLINES FOR THE TREATMENT OF MYELOMA” (BAYER SCHERING PHARMA AKTIENGESELLSCHAFT, priority 2008, published 2011)
